Test results reported in patent US20250360109A1, “COMPOSITIONS AND METHODS FOR TREATING DEPRESSION IN FEMALES” (priority 2022, published 2025).

What was measured:
Format in all cases: in vivo, human
[1] = test system: adult subjects with major depressive disorder (MDD); experiment: Phase 2 placebo-controlled study in MDD, Quick Inventory of Depressive Symptomology-Self Report (QIDS-SR); details: mITT; for Change from Baseline, QIDS Total at Week 2, LSM Difference (95% CI) / Change from Baseline, QIDS Total at Week 4, LSM Difference (95% CI): 20 mg/day vs Placebo; for Change from Baseline, QIDS Total at Week 2, Mean (SD) / Change from Baseline, QIDS Total at Week 2, Median / Change from Baseline, QIDS Total at Week 4, Mean (SD) / Change from Baseline, QIDS Total at Week 4, Median / QIDS Total at Week 2, Mean (SD) / QIDS Total at Week 2, Median / QIDS Total at Week 4, Mean (SD) / QIDS Total at Week 4, Median: 20 mg/day
Protocol: (§1) A Phase 2, multicenter, double-blind, randomized, placebo-controlled study of the safety and efficacy of SP-624 in the treatment of adult subjects with major depressive disorder (MDD) as defined by the Diagnostic and Statistical Manual of Mental Disorders, Fifth Edition (DSM-5) was carried out. Following the successful completion of a Screening Phase, subjects were randomized to one of two treatment groups in a 1:1 ratio and received Compound 1 (SP-624) or placebo over a treatment period of four weeks (Treatment Group #1: SP-624 20 mg/day; Treatment Group #2: Placebo).
(§2) Prior to initiating the 4-week treatment period, subjects completed a Screening/Baseline period of up to 28 days, during which time all screening assessments were performed, and any current depression medications discontinued. All screening assessments were completed before discontinuing any current depression medications. Subjects returned for a Baseline Visit to complete efficacy and safety assessments. During the treatment period, subjects returned to the investigative site to complete efficacy and safety assessments at the end of Weeks 1, 2, 3, and 4. After the final dose of study drug, subjects completed a follow-up period of two weeks and returned at the end of Weeks 5 and 6. Subjects may be treated with anti-depressant medications according to physician recommendations after completion of the Week 5 Visit.
(§3) Each dose of Compound 1 was supplied as two capsules, each containing 10 mg of active pharmaceutical ingredient (API). Matching placebo capsules identical in shape and color to the active capsules were used.
(§4) Secondary efficacy endpoints included: • Change from Baseline to Weeks 1, 2, and 3 in MADRS total score, • Change from Baseline to Weeks 1, 2, 3, and 4 in Clinical Global Impression-Severity (CGI-S) total score, • Change from Baseline to Week 5 and change from Week 4 to Week 5 in MADRS total score and CGI-S total score, • Change from Baseline to Week 2 and Week 4 in the 17-item Hamilton Depression Rating Scale (HAM D-17) total score, • Change from Baseline to Week 2 and Week 4 in the Sheehan Disability Scale (SDS), • Change from Baseline to Week 2 and Week 4 in the Quick Inventory of Depressive Symptomology-Self Report (QIDS-SR), and • Change from Baseline to Week 2 and Week 4 in the Quality of Life Enjoyment and Satisfaction Questionnaire-Short Form (Q-LES-Q-SF).

[2] = test system: adult subjects with major depressive disorder (MDD); experiment: Phase 2 placebo-controlled study in MDD, 17-item Hamilton Depression Rating Scale (HAM D-17) total score; details: mITT; for Change from Baseline, HAM-D-17 Total at Week 2, LSM Difference (95% CI) / Change from Baseline, HAM-D-17 Total at Week 4, LSM Difference (95% CI): 20 mg/day vs Placebo; for Change from Baseline, HAM-D-17 Total at Week 2, Mean (SD) / Change from Baseline, HAM-D-17 Total at Week 2, Median / Change from Baseline, HAM-D-17 Total at Week 4, Mean (SD) / Change from Baseline, HAM-D-17 Total at Week 4, Median / HAM-D-17 Total at Week 2, Mean (SD) / HAM-D-17 Total at Week 2, Median / HAM-D-17 Total at Week 4, Mean (SD) / HAM-D-17 Total at Week 4, Median: 20 mg/day
Protocol: as §1, §2, §3, §4

[3] = test system: adult subjects with major depressive disorder (MDD); experiment: Phase 2 placebo-controlled study in MDD, Clinical Global Impression-Severity (CGI-S) total score; details: mITT; for Change from Baseline, CGI-S Total at Week 1, LSM Difference (95% CI) / Change from Baseline, CGI-S Total at Week 2, LSM Difference (95% CI) / Change from Baseline, CGI-S Total at Week 3, LSM Difference (95% CI) / Change from Baseline, CGI-S Total at Week 4, LSM Difference (95% CI): 20 mg/day vs Placebo; for CGI-S Total at Week 1, Mean (SD) / CGI-S Total at Week 1, Median / CGI-S Total at Week 2, Mean (SD) / CGI-S Total at Week 2, Median / CGI-S Total at Week 3, Mean (SD) / CGI-S Total at Week 3, Median / CGI-S Total at Week 4, Mean (SD) / CGI-S Total at Week 4, Median / Change from Baseline, CGI-S Total at Week 1, Mean (SD) / Change from Baseline, CGI-S Total at Week 1, Median / Change from Baseline, CGI-S Total at Week 2, Mean (SD) / Change from Baseline, CGI-S Total at Week 2, Median / Change from Baseline, CGI-S Total at Week 3, Mean (SD) / Change from Baseline, CGI-S Total at Week 3, Median / Change from Baseline, CGI-S Total at Week 4, Mean (SD) / Change from Baseline, CGI-S Total at Week 4, Median: 20 mg/day
Protocol: as §1, §2, §3, §4

COC1=CC(=O)C[C@@H](C)[C@]12Oc1c(Cl)c(-c3nnc(C)o3)cc(OC)c1C2=O [SP-624, (2S,6′R)-7-Chloro-2′,4-dimethoxy-6′-methyl-6-(5-methyl-1,3,4-oxadiazol-2-yl)-3H-spiro[1-benzofuran-2,1′-cyclohex [2]ene]-3,4′-dione]
Change from Baseline, QIDS Total at Week 2, LSM Difference (95% CI) ([1]; Female): −1.1 (−2.4, 0.3) | Change from Baseline, QIDS Total at Week 4, LSM Difference (95% CI) ([1]; Female): −2.0 (−3.3, −0.6) | Change from Baseline, QIDS Total at Week 2, Mean (SD) ([1]; Female): −3.9 (4.37) | Change from Baseline, QIDS Total at Week 2, Median ([1]; Female): −3 | Change from Baseline, QIDS Total at Week 4, Mean (SD) ([1]; Female): −5.7 (4.76) | Change from Baseline, QIDS Total at Week 4, Median ([1]; Female): −5 | QIDS Total at Week 2, Mean (SD) ([1]; Female): 11.7 (4.87) | QIDS Total at Week 2, Median ([1]; Female): 12 | QIDS Total at Week 4, Mean (SD) ([1]; Female): 10.2 (4.69) | QIDS Total at Week 4, Median ([1]; Female): 10 | Change from Baseline, QIDS Total at Week 2, LSM Difference (95% CI) ([1]; Male): 1.2 (−0.9, 3.2) | Change from Baseline, QIDS Total at Week 4, LSM Difference (95% CI) ([1]; Male): 1.1 (−0.8, 3.0) | Change from Baseline, QIDS Total at Week 2, Mean (SD) ([1]; Male): −2.1 (5.50) | Change from Baseline, QIDS Total at Week 2, Median ([1]; Male): −2 | Change from Baseline, QIDS Total at Week 4, Mean (SD) ([1]; Male): −3.3 (4.46) | Change from Baseline, QIDS Total at Week 4, Median ([1]; Male): −4 | QIDS Total at Week 2, Mean (SD) ([1]; Male): 11.7 (5.27) | QIDS Total at Week 2, Median ([1]; Male): 12 | QIDS Total at Week 4, Mean (SD) ([1]; Male): 10.4 (4.55) | QIDS Total at Week 4, Median ([1]; Male): 11 | Change from Baseline, HAM-D-17 Total at Week 2, LSM Difference (95% CI) ([2]; Female): −0.9 (−2.6, 0.8) | Change from Baseline, HAM-D-17 Total at Week 4, LSM Difference (95% CI) ([2]; Female): −2.3 (−4.2, −0.4) | Change from Baseline, HAM-D-17 Total at Week 2, Mean (SD) ([2]; Female): −6.4 (5.99) | Change from Baseline, HAM-D-17 Total at Week 2, Median ([2]; Female): −5 | Change from Baseline, HAM-D-17 Total at Week 4, Mean (SD) ([2]; Female): −8.8 (6.82) | Change from Baseline, HAM-D-17 Total at Week 4, Median ([2]; Female): −8 | HAM-D-17 Total at Week 2, Mean (SD) ([2]; Female): 16.6 (6.25) | HAM-D-17 Total at Week 2, Median ([2]; Female): 17 | HAM-D-17 Total at Week 4, Mean (SD) ([2]; Female): 14.6 (7.03) | HAM-D-17 Total at Week 4, Median ([2]; Female): 15 | Change from Baseline, HAM-D-17 Total at Week 2, LSM Difference (95% CI) ([2]; Male): 0.1 (−2.6, 2.8) | Change from Baseline, HAM-D-17 Total at Week 4, LSM Difference (95% CI) ([2]; Male): 1.4 (−1.4, 4.3) | Change from Baseline, HAM-D-17 Total at Week 2, Mean (SD) ([2]; Male): −5.7 (5.90) | Change from Baseline, HAM-D-17 Total at Week 2, Median ([2]; Male): −5 | Change from Baseline, HAM-D-17 Total at Week 4, Mean (SD) ([2]; Male): −7.8 (6.57) | Change from Baseline, HAM-D-17 Total at Week 4, Median ([2]; Male): −7 | HAM-D-17 Total at Week 2, Mean (SD) ([2]; Male): 16.2 (6.58) | HAM-D-17 Total at Week 2, Median ([2]; Male): 17 | HAM-D-17 Total at Week 4, Mean (SD) ([2]; Male): 14.3 (6.96) | HAM-D-17 Total at Week 4, Median ([2]; Male): 15 | Change from Baseline, CGI-S Total at Week 1, LSM Difference (95% CI) ([3]; Female): −0.1 (−0.3, 0.1) | Change from Baseline, CGI-S Total at Week 2, LSM Difference (95% CI) ([3]; Female): −0.3 (−0.5, 0.0) | Change from Baseline, CGI-S Total at Week 3, LSM Difference (95% CI) ([3]; Female): −0.4 (−0.7, −0.1) | Change from Baseline, CGI-S Total at Week 4, LSM Difference (95% CI) ([3]; Female): −0.5 (−0.8, −0.1) | CGI-S Total at Week 1, Mean (SD) ([3]; Female): 4.0 (0.89) | CGI-S Total at Week 1, Median ([3]; Female): 4 | CGI-S Total at Week 2, Mean (SD) ([3]; Female): 3.6 (0.97) | CGI-S Total at Week 2, Median ([3]; Female): 4 | CGI-S Total at Week 3, Mean (SD) ([3]; Female): 3.4 (1.15) | CGI-S Total at Week 3, Median ([3]; Female): 4 | CGI-S Total at Week 4, Mean (SD) ([3]; Female): 3.3 (1.20) | CGI-S Total at Week 4, Median ([3]; Female): 3 | Change from Baseline, CGI-S Total at Week 1, Mean (SD) ([3]; Female): −0.5 (0.80) | Change from Baseline, CGI-S Total at Week 1, Median ([3]; Female): 0 | Change from Baseline, CGI-S Total at Week 2, Mean (SD) ([3]; Female): −0.8 (0.96) | Change from Baseline, CGI-S Total at Week 2, Median ([3]; Female): −1 | Change from Baseline, CGI-S Total at Week 3, Mean (SD) ([3]; Female): −1.1 (1.13) | Change from Baseline, CGI-S Total at Week 3, Median ([3]; Female): −1 | Change from Baseline, CGI-S Total at Week 4, Mean (SD) ([3]; Female): −1.2 (1.14) | Change from Baseline, CGI-S Total at Week 4, Median ([3]; Female): −1 | Change from Baseline, CGI-S Total at Week 1, LSM Difference (95% CI) ([3]; Male): 0.0 (−0.5, 0.4) | Change from Baseline, CGI-S Total at Week 2, LSM Difference (95% CI) ([3]; Male): −0.1 (−0.5, 0.3) | Change from Baseline, CGI-S Total at Week 3, LSM Difference (95% CI) ([3]; Male): 0.0 (−0.4, 0.4) | Change from Baseline, CGI-S Total at Week 4, LSM Difference (95% CI) ([3]; Male): 0.2 (−0.3, 0.6) | CGI-S Total at Week 1, Mean (SD) ([3]; Male): 3.9 (0.84) | CGI-S Total at Week 1, Median ([3]; Male): 4 | CGI-S Total at Week 2, Mean (SD) ([3]; Male): 3.5 (1.18) | CGI-S Total at Week 2, Median ([3]; Male): 4 | CGI-S Total at Week 3, Mean (SD) ([3]; Male): 3.4 (1.15) | CGI-S Total at Week 3, Median ([3]; Male): 4 | CGI-S Total at Week 4, Mean (SD) ([3]; Male): 3.4 (1.27) | CGI-S Total at Week 4, Median ([3]; Male): 4 | Change from Baseline, CGI-S Total at Week 1, Mean (SD) ([3]; Male): −0.5 (0.85) | Change from Baseline, CGI-S Total at Week 1, Median ([3]; Male): 0 | Change from Baseline, CGI-S Total at Week 2, Mean (SD) ([3]; Male): −0.9 (1.16) | Change from Baseline, CGI-S Total at Week 2, Median ([3]; Male): −1 | Change from Baseline, CGI-S Total at Week 3, Mean (SD) ([3]; Male): −1.0 (1.16) | Change from Baseline, CGI-S Total at Week 3, Median ([3]; Male): −1 | Change from Baseline, CGI-S Total at Week 4, Mean (SD) ([3]; Male): −1.0 (1.27) | Change from Baseline, CGI-S Total at Week 4, Median ([3]; Male): −1
